For one data set, the system named is Jurkat cells. The data set is described as follows: Cell cytotoxicity assay (r). Format: cell-based, human. The conditions noted are these: 24 hours. The procedure, abridged: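 Jurkat cells (1×10^5/well, RPMI + 10% FBS) exposed to compound at 20, 5 or 1 μg/mL final (1.0% DMSO control) for 24 h at 37° C., 5% CO2. Then stained with 7.5 μg/mL propidium iodide for 15 min. % viability = PI-negative cells by flow cytometry, normalized to DMSO.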

For another data set, the target named is GSK 3α (Homo sapiens (Human), UniProt P49840). The data set is described as follows: GSK 3α enzyme inhibition (Method 2), Z-LYTE FRET. The conditions noted are these: read-out: IC50 Values for Enzyme Inhibition GSK3α. Format: biochemical. The procedure, abridged:
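GSK3-α (500 ng/mL stock) was preincubated with compound at RT for 2 hr (Method 1; 4-0.004 μg/mL stocks) or 105 min (Method 2; 10-0.01 μg/mL stocks). The Z-LYTE FRET peptide (8 μM stock) and ATP (40 μM stock) were then reacted for 1 hr, followed by 1 hr protease development. Phosphorylation was read as the coumarin/fluorescein emission ratio.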

A short description of data set [1]: Solubility in fasted-state simulated colonic fluid (FaSSCoF) at pH 6.5. The conditions noted are these: 25 °C, pH 6.5, fassgf or other biorelevant, thermodynamic from solid. The class given is physicochemical. The procedure, abridged:
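Compounds were suspended at up to 2-10 mg/mL in pH 6.5 Tris/maleate FaSSCoF containing a five-bile-acid mixture, phosphatidylcholine, palmitic acid and BSA. After 24 h equilibration at 25° C the suspension was filtered and the filtrate quantified by HPLC peak area against a standard.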

Data set [2] is described as follows: Pharmacokinetics and total colon distribution after single oral administration. The class given is in vivo, male C57BL/6 mice. As to conditions: male, C57BL/6, mouse, mice, Ex. 16 measured after oral 5 mg/kg of Ex. 19 (Na salt). On the procedure: Studies were conducted by Sai Life Sciences (Hinjewadi, Pune, India) to investigate the systemic pharmacokinetics and total colon tissue distribution of compounds of the invention. In particular, pharmacokinetic studies were carried out in male C57BL/6 mice following a single oral administration of the compound.

The target of the next data set is hERG (Homo sapiens (Human), UniProt Q12809). The data set can be described thus: hERG inhibition, IonWorks patch clamp electrophysiology. The class given is cell-based. As to conditions: human, hERG, read-out: % Inhibition at Top Concentration. On the procedure: (§1) Compounds of the invention were tested for inhibition of the human ether a go-go (hERG) channel using IonWorks™ patch clamp electrophysiology at Essen Bioscience (Welwyn Garden City, England).

The target of data set [3] is human ether a go-go (hERG) channel (Homo sapiens (Human), UniProt Q12809). The data set is described as above. Format: cell-based. The conditions noted are these: IonWorks patch clamp. As for the experimental part:
as §1

Setting [4] is: pH 6.5 FaSSCoF Solubility (mg/mL) Run 1.
Setting [5] is: pH 6.5 FaSSCoF Solubility (mg/mL) Run 2.
The mark [6] stands for this setting: blood, read-out: Mean blood concentration.
[7] abbreviates: total colon, read-out: total colon level.

In brackets after ≈: the same amount, converted by molar mass. Like-named read-outs stand apart in the source and are kept apart here. Bounds are passed on as bounds.

Sequence of GSK 3α (P49840 whole entry): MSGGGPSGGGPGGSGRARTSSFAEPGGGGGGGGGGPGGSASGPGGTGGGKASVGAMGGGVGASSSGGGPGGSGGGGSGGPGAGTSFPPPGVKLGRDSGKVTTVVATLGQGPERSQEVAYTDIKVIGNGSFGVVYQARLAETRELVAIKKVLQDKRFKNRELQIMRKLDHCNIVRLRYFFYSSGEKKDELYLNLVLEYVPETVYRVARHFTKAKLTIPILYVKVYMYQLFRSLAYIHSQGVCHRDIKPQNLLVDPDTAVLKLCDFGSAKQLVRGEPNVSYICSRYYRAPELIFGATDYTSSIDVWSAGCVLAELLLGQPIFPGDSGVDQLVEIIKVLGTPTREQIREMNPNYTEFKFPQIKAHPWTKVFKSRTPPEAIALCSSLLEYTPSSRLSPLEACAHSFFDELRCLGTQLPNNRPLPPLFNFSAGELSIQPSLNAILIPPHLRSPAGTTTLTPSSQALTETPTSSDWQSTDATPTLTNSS
Sequence of human ether a go-go (hERG) channel (Q12809 whole entry): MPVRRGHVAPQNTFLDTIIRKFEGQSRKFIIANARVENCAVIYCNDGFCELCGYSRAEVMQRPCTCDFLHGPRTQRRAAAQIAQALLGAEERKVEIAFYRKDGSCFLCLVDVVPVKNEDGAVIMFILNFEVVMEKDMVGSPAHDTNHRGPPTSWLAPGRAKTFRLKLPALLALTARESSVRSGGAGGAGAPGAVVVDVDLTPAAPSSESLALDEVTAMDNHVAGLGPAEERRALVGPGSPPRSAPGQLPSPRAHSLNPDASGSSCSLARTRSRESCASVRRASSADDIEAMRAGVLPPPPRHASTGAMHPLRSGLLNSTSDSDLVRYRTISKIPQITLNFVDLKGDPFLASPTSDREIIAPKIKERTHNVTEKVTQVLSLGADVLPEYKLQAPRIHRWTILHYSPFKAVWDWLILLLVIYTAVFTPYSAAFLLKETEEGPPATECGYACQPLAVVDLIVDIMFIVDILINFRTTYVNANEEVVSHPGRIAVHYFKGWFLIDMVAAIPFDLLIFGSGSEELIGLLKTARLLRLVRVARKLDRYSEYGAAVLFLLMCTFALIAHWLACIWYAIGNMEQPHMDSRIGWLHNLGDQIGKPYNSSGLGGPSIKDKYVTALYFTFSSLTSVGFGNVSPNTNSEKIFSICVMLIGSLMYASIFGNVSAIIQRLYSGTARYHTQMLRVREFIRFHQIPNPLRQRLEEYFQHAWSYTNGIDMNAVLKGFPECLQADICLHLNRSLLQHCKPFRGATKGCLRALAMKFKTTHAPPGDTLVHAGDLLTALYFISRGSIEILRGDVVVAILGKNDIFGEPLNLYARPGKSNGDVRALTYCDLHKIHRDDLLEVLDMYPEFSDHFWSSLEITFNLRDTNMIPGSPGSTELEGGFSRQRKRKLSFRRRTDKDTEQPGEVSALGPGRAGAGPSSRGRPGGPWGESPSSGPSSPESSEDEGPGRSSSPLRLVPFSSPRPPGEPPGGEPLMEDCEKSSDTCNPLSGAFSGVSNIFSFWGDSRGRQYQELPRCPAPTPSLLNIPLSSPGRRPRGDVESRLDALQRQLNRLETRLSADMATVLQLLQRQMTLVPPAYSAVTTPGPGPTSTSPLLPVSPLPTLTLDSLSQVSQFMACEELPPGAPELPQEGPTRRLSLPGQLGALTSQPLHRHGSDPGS
Sequence of hERG (Q12809 whole entry): as above

In the case of `COCCN(C)CCNC(=O)c1ccc(Nc2cc(Oc3ccc(NC(=O)Nc4cc(C(C)(C)C)cc(NS(C)(=O)=O)c4OC)c4ccccc34)ccn2)cc1OC` [17(ad), 4-[[4-[[4-[[5-tert-butyl-3-(methanesulfonamido)-2-methoxy-phenyl]carbamoylamino]-1-naphthyl]oxy]-2-pyridyl]amino]-2-methoxy-N-[2-[2-methoxyethyl(methyl)amino]ethyl]-benzamide], in the data set with Jurkat cells, the “% Viability at 5 μg/mL” value came out at 6.3% and the “% Viability at 20 μg/mL” value amounted to 0.4%. Moreover, the IC50 at GSK 3α worked out at 3060 nM.

Turning to `COc1cc(Nc2cc(Oc3ccc(NC(=O)Nc4cc(C(C)(C)C)cc(NS(C)(=O)=O)c4OC)c4ccccc34)ccn2)ccc1C(=O)NCC1CCN(C)CC1` [17(ak), 4-[[4-[[4-[[5-tert-butyl-3-(methanesulfonamido)-2-methoxy-phenyl]carbamoylamino]-1-naphthyl]oxy]-2-pyridyl]amino]-2-methoxy-N-[(1-methyl-4-piperidyl)methyl]benzamide], in the data set on Jurkat cells (1 μg/mL), the “% Viability at 1 μg/mL” value was determined as 99.0%. The “% Viability at 20 μg/mL” value in the data set on Jurkat cells is listed as 0.4%. At GSK 3α, the IC50 is 1820 nM.

As to `COc1cc(Nc2cc(Oc3ccc(NC(=O)Nc4cc(C(C)(C)C)cc(NS(C)(=O)=O)c4OC)c4ccccc34)ccn2)ccc1C(=O)NCCN1CCCCC1` [17(p), 4-[[4-[[4-[[5-tert-butyl-3-(methanesulfonamido)-2-methoxy-phenyl]carbamoylamino]-1-naphthyl]oxy]-2-pyridyl]amino]-2-methoxy-N-[2-(1-piperidyl)ethyl]benzamide], the “% Viability at 20 μg/mL” value in the data set with Jurkat cells is given as 1.5%. Further, on GSK 3α, the IC50 was determined as 4680 nM.

In the case of `COc1cc(Nc2cc(Oc3ccc(NC(=O)Nc4cc(C(C)(C)C)cc(NS(C)(=O)=O)c4OC)c4ccccc34)ccn2)ccc1C(=O)NCCN1CCN(CCO)CC1` [17(z), 4-[[4-[[4-[[5-tert-butyl-3-(methanesulfonamido)-2-methoxy-phenyl]carbamoylamino]-1-naphthyl]oxy]-2-pyridyl]amino]-N-[2-[4-(2-hydroxyethyl)piperazin-1-yl]ethyl]-2-methoxy-benzamide], in the data set on Jurkat cells, the “% Viability at 20 μg/mL” value is given as 2.0%. Further, the IC50 on GSK 3α was 2880 nM.

Take `COc1cc(Nc2cc(Oc3ccc(NC(=O)Nc4cc(C(C)(C)C)cc(NS(C)(=O)=O)c4OC)c4ccccc34)ccn2)ccc1C(=O)NCCC1CCN(C)CC1` [Example 14, 4-[[4-[[4-[[5-tert-Butyl-3-(methanesulfonamido)-2-methoxy-phenyl]carbamoylamino]-1-naphthyl]oxy]-2-pyridyl]amino]-2-methoxy-N-[2-(1-methyl-4-piperidyl)ethyl]benzamide]: the results for the thermodynamic solubility at 24 h in data set [1] (setting [4]) and in data set [1] (setting [5]) were 16 µg/mL (≈ 19.4 µM) and 13 µg/mL (≈ 15.8 µM), respectively. Also, the “% Viability at 20 μg/mL” value with Jurkat cells stood at 0.7%. Further, the IC50 on GSK 3α was determined as 2200 nM.

As to `C#Cc1cc(Nc2cc(Oc3ccc(NC(=O)Nc4cc(C(C)(C)C)cc(NS(C)(=O)=O)c4OC)c4ccccc34)ccn2)ccc1C(=O)NCCN1CCOCC1` [Example 15, 4-[[4-[[4-[[5-tert-Butyl-3-(methanesulfonamido)-2-methoxy-phenyl]carbamoylamino]-1-naphthyl]oxy]-2-pyridyl]amino]-2-ethynyl-N-(2-morpholinoethyl)benzamide], the thermodynamic solubility at 24 h in data set [1] (setting [4]) and in data set [1] (setting [5]) was 10 µg/mL (≈ 12.4 µM) in each case. For the same molecule, the “% Viability at 5 μg/mL” value with Jurkat cells amounted to 75.0%. Also, the IC50 at GSK 3α was 2790 nM.

For the molecule `COc1cc(Nc2cc(Oc3ccc(NC(=O)Nc4cc(C(C)(C)C)cc(NS(C)(=O)=O)c4OC)c4ccccc34)ccn2)ccc1C(=O)NCCOCCOCCO` [Example 16, 4-[[4-[[4-[[5-tert-Butyl-3-(methanesulfonamido)-2-methoxy-phenyl]carbamoylamino]-1-naphthyl]oxy]-2-pyridyl]amino]-N-[2-[2-(2-hydroxyethoxy)ethoxy]ethyl]-2-methoxy-benzamide], the solubility (thermodynamic) at 24 h in data set [1] (setting [4]) was 4 µg/mL (≈ 4.81 µM). Further, in data set [1] (setting [5]), the thermodynamic solubility at 24 h is 4 µg/mL (≈ 4.81 µM). Besides, in data set [2] (setting [6]), the concentration at 0.5 h was determined as 1.3 ng/mL, the concentration at 1 h came to 1.4 ng/mL, the concentration at 2 h was 0.6 ng/mL and the concentration at 4 h is 0 ng/mL. In data set [2] (setting [6]), the concentration at 6 h turned out to be 0 ng/mL, the concentration at 8 h was 0.2 ng/mL, the concentration at 12 h was found to be 0 ng/mL and the concentration at 24 h came out at 0 ng/mL. Further, in data set [2] (setting [7]), the concentration at 0.5 h was determined as 9.5 ng/g, the concentration at 1 h turned out to be 110 ng/g, the concentration at 2 h came out at 2400 ng/g and the concentration at 4 h turned out to be 3350 ng/g. Besides, in data set [2] (setting [7]), the concentration at 6 h was determined as 3320 ng/g, the concentration at 8 h was determined as 3420 ng/g, the concentration at 12 h came to 5090 ng/g and the concentration at 24 h is 0 ng/g. On GSK 3α, the IC50 is 3730 nM.

As to `COc1cc(Nc2cc(Oc3ccc(NC(=O)Nc4cc(C(C)(C)C)cc(NS(C)(=O)=O)c4OC)c4ccccc34)ccn2)cc(OC)c1C(=O)NCCN1CCN(C)CC1` [Example 22, 4-((4-((4-(3-(5-(tert-Butyl)-2-methoxy-3-(methylsulfonamido)phenyl)ureido)naphthalen-1-yl)oxy)pyridin-2-yl)amino)-2,6-dimethoxy-N-(2-(4-methylpiperazin-1-yl)ethyl)benzamide], the thermodynamic solubility at 24 h in data set [1] (setting [4]) is 17 µg/mL (≈ 19.9 µM); in data set [1] (setting [5]), 25 µg/mL (≈ 29.2 µM); in data set [1] (pH 6.5 FaSSCoF Solubility (mg/mL) Run 3) it was 13 µg/mL (≈ 15.2 µM); in data set [1] (pH 6.5 FaSSCoF Solubility (mg/mL) Run 4) it was 9 µg/mL (≈ 10.5 µM). For the same molecule, the inhibition at 3.7 µM on hERG (3.7 μM) came out at 13%. The molecule further returned an IC50 in data set [3] of more than 3700 nM.

Turning to `COc1cc(Nc2cc(Oc3ccc(NC(=O)Nc4cc(C(C)(C)C)cc(NC(=O)CO)c4OC)c4ccccc34)ccn2)ccc1C(=O)NCCN1CC[S+]([O-])CC1` [Example 41, 4-((4-((4-(3-(5-(tert-Butyl)-3-(2-hydroxyacetamido)-2-methoxyphenyl)ureido)naphthalen-1-yl)oxy)pyridin-2-yl)amino)-2-methoxy-N-(2-(1-oxidothiomorpholino)ethyl)benzamide], the figures for the thermodynamic solubility at 24 h in data set [1] (setting [4]) and in data set [1] (setting [5]) were 7 µg/mL (≈ 8.5 µM) and 3 µg/mL (≈ 3.64 µM), respectively. Further, at hERG (11 μM), the inhibition at 11 µM turned out to be 7%. Moreover, the IC50 in data set [3] was more than 11000 nM.

The IC50 is the concentration that inhibits the measured activity by half. As a reminder, the thermodynamic solubility is solubility found after equilibrating the solid with the medium.
